For 27 compounds, IC50 results are on record in patent US7846959B2, “Raf modulators and methods of use” (Exelixis, Inc., priority 2004, dated 2010).

One experiment has as its target c-Raf (Homo sapiens, UniProt P04049). As to the kind of experiment: Luciferase-coupled chemiluminescence kinase assay (ATP consumption), c-Raf. It counts as biochemical. The conditions noted are these: read-out: cRaf-1 IC50. Here is the method:
(§1) Tyrosine kinase activity is determined by 1) measurement of kinase-dependent ATP consumption by in the presence of a generic substrate such as […], tyrosine (pEY), by luciferase/luciferin-mediated chemiluminescence or; 2) incorporation of radioactive phosphate derived from ^33P-ATP into a generic substrate which has been adsorbed onto the well surface of polystyrene microtiter plates. Phosphorylated substrate products are quantified by scintillation spectrometry.
(§2) Luciferase-Coupled Chemiluminescence Assay Protocol
(§3) Kinase activity is measured as the percent of ATP consumed following the kinase reaction using luciferase-luciferin-coupled chemiluminescence. Reactions were conducted in 384-well white, medium binding microtiter plates (Greiner). Kinase reactions were initiated by combining test compounds, ATP and kinase in a 20 uL volume. The reaction mixture was incubated at ambient temperature for 3 hrs. For c-Raf, B-Raf, and B-RafV599E, […] of the enzyme was pre-incubated with compound in 20 mM Tris pH 7.5, 10 mM MgCl2, 0.03% TX-100, and 1 mM DTT for 30 minutes at room temperature. Following the kinase reaction, a 20 μL aliquot of luciferase-luciferin mix was added and the chemiluminescence signal measured using a Victor^2 plate reader (Perkin Elmer). The luciferase-luciferin mix contained 50 mM HEPES, pH 7.8, 67 mM oxalic acid (pH 7.8), 5 (or 50) mM DTT, 0.4% Triton X-100, 0.25 mg/mL coenzyme A, 63 μM AMP, 28 μg/mL luciferin and 40,000 units/mL luciferase. Total ATP consumption was limited to 25-60% and the IC50 values correlate well with those determined by radiometric assays.

A further experiment addresses B-Raf (Homo sapiens, UniProt P15056). The experiment is described as follows: Luciferase-coupled chemiluminescence kinase assay (ATP consumption), B-Raf. The conditions noted are these: read-out: bRaf IC50. The class given is biochemical. Here is the method: as §1, §2, §3

Molecules are shown by their SMILES. pIC50: −log10 of the molar value.

Chain of B-Raf (P15056 whole entry): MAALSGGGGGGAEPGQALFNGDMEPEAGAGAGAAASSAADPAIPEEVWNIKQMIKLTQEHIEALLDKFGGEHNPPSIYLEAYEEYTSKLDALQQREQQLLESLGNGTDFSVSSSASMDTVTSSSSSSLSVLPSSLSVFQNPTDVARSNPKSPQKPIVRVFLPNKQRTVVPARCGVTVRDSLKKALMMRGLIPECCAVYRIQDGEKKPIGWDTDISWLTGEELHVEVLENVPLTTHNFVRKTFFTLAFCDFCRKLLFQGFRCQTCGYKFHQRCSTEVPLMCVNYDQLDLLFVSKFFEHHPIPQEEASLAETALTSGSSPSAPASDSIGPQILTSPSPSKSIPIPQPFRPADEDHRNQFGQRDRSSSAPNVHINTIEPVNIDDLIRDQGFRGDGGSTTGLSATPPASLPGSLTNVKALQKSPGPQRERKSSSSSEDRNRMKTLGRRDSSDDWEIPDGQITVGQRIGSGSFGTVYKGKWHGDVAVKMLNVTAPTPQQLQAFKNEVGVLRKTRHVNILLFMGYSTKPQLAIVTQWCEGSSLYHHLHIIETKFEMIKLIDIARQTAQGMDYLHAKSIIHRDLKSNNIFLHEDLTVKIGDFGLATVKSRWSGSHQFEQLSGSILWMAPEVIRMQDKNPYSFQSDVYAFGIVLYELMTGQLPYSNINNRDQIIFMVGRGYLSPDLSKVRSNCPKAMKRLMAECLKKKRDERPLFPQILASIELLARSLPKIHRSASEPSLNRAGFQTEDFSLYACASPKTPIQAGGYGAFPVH
Chain of c-Raf (P04049 whole entry): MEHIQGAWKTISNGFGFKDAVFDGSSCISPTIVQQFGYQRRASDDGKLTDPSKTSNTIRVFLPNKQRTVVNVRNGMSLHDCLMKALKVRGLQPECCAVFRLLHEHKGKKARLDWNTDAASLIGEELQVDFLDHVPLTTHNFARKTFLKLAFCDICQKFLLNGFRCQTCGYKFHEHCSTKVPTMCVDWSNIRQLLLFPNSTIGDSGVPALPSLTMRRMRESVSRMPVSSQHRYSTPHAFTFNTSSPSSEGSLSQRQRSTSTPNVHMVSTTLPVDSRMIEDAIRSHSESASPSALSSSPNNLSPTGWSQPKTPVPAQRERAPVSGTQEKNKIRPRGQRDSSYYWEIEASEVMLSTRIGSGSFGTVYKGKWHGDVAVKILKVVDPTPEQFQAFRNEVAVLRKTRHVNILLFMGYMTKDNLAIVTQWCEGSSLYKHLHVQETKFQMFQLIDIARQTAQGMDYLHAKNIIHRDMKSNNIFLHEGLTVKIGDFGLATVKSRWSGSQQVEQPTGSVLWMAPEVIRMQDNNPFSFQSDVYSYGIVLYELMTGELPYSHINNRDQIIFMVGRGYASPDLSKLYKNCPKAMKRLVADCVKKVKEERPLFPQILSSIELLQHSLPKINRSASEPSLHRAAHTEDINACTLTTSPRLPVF

By pIC50 is commonly meant the negative decadic logarithm of the IC50, by convention in mol/L. On to `O=C1COc2ccc(C3(O)c4ccccc4C(=O)N3c3cccc(CO)c3)cc2N1` (stereo not drawn) [Entry 82, 6-{1-hydroxy-2-[3-(hydroxymethyl)phenyl]-3-oxo-2,3-dihydro-1H-isoindol-1-yl}-2H-1,4-benzoxazin-3(4H)-one], for which the pIC50 at c-Raf and on B-Raf was 5.00 to 6.00 in each case.
With `O=C1COc2ccc(C3(O)c4ccccc4C(=O)N3c3ccccc3F)cc2N1` (stereo not drawn) [Entry 83, 6-[2-(2-fluorophenyl)-1-hydroxy-3-oxo-2,3-dihydro-1H-isoindol-1-yl]-2H-1,4-benzoxazin-3(4H)-one], the pIC50 at c-Raf is 5.00 to 6.00; on B-Raf, 6.00 to 7.00.
The like results for `CNc1nc2cc(C3(O)c4ccccc4C(=O)N3Cc3ccccc3)ccc2[nH]1` (stereo not drawn) [Entry 84, 3-hydroxy-3-[2-(methylamino)-1H-benzimidazol-5-yl]-2-(phenylmethyl)-2,3-dihydro-1H-isoindol-1-one] were, in that order, 5.00 to 6.00 and 5.00 to 6.00.
The like results for `O=C1COc2ccc(C3(O)c4ccccc4C(=O)N3c3cccc(-c4ccccc4)c3)cc2N1` (stereo not drawn) [Entry 85, 6-(2-biphenyl-3-yl-1-hydroxy-3-oxo-2,3-dihydro-1H-isoindol-1-yl)-2H-1,4-benzoxazin-3(4H)-one] were, in that order, not above 5.00 and not above 5.00.
The matching figures for `CN(C)Cc1cccc(N2C(=O)c3ccccc3C2(O)c2ccc3c(c2)NC(=O)CO3)c1` (stereo not drawn) [Entry 86, 6-(2-{3-[(dimethylamino)methyl]phenyl}-1-hydroxy-3-oxo-2,3-dihydro-1H-isoindol-1-yl)-2H-1,4-benzoxazin-3(4H)-one]: 5.00 to 6.00 and 5.00 to 6.00.
Take `O=C1COc2ccc(C3(O)c4ccccc4C(=O)N3c3cc(Cl)cc(Cl)c3)cc2N1` (stereo not drawn) [Entry 87, 6-[2-(3,5-dichlorophenyl)-1-hydroxy-3-oxo-2,3-dihydro-1H-isoindol-1-yl]-2H-1,4-benzoxazin-3(4H)-one]: the pIC50 at c-Raf and at B-Raf was 5.00 to 6.00 throughout.
On to `O=C1COc2ccc(C3(O)c4ccccc4C(=O)N3C3CCNCC3)cc2N1` (stereo not drawn) [Entry 88, 6-(1-hydroxy-3-oxo-2-piperidin-4-yl-2,3-dihydro-1H-isoindol-1-yl)-2H-1,4-benzoxazin-3(4H)-one], for which the pIC50 on c-Raf and at B-Raf was not above 5.00 each time.
For the compound `CN(C)CCOc1cccc(N2C(=O)c3ccccc3C2(O)c2ccc3c(c2)NC(=O)CO3)c1` (stereo not drawn) [Entry 89, 6-[2-(3-{[2-(dimethylamino)ethyl]oxy}phenyl)-1-hydroxy-3-oxo-2,3-dihydro-1H-isoindol-1-yl]-2H-1,4-benzoxazin-3(4H)-one], the pIC50 on c-Raf and on B-Raf was not above 5.00 throughout.
With `Cc1ccccc1N1C(=O)c2ccccc2C1(O)c1ccc2c(c1)NC(=O)CO2` (stereo not drawn) [Entry 90, 6-[1-hydroxy-2-(2-methylphenyl)-3-oxo-2,3-dihydro-1H-isoindol-1-yl]-2H-1,4-benzoxazin-3(4H)-one], the pIC50 on c-Raf and at B-Raf was 5.00 to 6.00 throughout.
For `CN(C(=O)c1ccccc1C(=O)c1ccc2c(c1)NC(=O)CO2)c1ccccc1` [Entry 91, N-methyl-2-[(3-oxo-3,4-dihydro-2H-1,4-benzoxazin-6-yl)carbonyl]-N-phenylbenzamide], the pIC50 on c-Raf and on B-Raf was not above 5.00 each time.
For the compound `CCOC1(c2ccc3[nH]c(NC(=O)OC)nc3c2)c2ccccc2C(=O)N1Cc1ccccc1` (stereo not drawn) [Entry 92, methyl {5-[1-(ethyloxy)-3-oxo-2-(phenylmethyl)-2,3-dihydro-1H-isoindol-1-yl]-1H-benzimidazol-2-yl}carbamate], the pIC50 at c-Raf and at B-Raf was 6.00 to 7.00 in each case.
Turning to `COC(=O)Nc1nc2cc(C(=O)c3ccccc3C(=O)OCc3ccccc3)ccc2[nH]1` [Entry 93, Phenylmethyl 2-[(2-{[(methyloxy)carbonyl]amino}-1H-benzimidazol-5-yl)carbonyl]benzoate], the pIC50 on c-Raf and at B-Raf was 6.00 to 7.00 each time.
Turning to `O=C1c2ccccc2C(O)(c2ccc3[nH]ncc3c2)N1Cc1ccccc1` (stereo not drawn) [Entry 94, 3-hydroxy-3-(1H-indazol-5-yl)-2-(phenylmethyl)-2,3-dihydro-1H-isoindol-1-one], the pIC50 on c-Raf and on B-Raf was 6.00 to 7.00 in each case.
With `O=C1c2ccccc2C(O)(c2ccc3cn[nH]c3c2)N1Cc1ccccc1` (stereo not drawn) [Entry 95, 3-hydroxy-3-(1H-indazol-6-yl)-2-(phenylmethyl)-2,3-dihydro-1H-isoindol-1-one], the pIC50 at c-Raf and on B-Raf was not above 5.00 throughout.
In the case of `CCOC(=O)Nc1nc2cc(C3(O)c4ccccc4C(=O)N3Cc3ccccc3)ccc2[nH]1` (stereo not drawn) [Entry 96, ethyl {5-[1-hydroxy-3-oxo-2-(phenylmethyl)-2,3-dihydro-1H-isoindol-1-yl]-1H-benzimidazol-2-yl}carbamate], the pIC50 at c-Raf and on B-Raf was not above 5.00 throughout.
For `CC(C)COC(=O)Nc1nc2cc(C3(O)c4ccccc4C(=O)N3Cc3ccccc3)ccc2[nH]1` (stereo not drawn) [Entry 97, 2-methylpropyl {5-[1-hydroxy-3-oxo-2-(phenylmethyl)-2,3-dihydro-1H-isoindol-1-yl]-1H-benzimidazol-2-yl}carbamate], the pIC50 at c-Raf and on B-Raf was 6.00 to 7.00 in each case.
Take `COC(=O)Nc1nc2cc(C3(O)c4ccccc4C(=O)N3Cc3cccs3)ccc2[nH]1` (stereo not drawn) [Entry 98, methyl {5-[1-hydroxy-3-oxo-2-(2-thienylmethyl)-2,3-dihydro-1H-isoindol-1-yl]-1H-benzimidazol-2-yl}carbamate]: the pIC50 at c-Raf and at B-Raf was more than 7.00 in each case.
Take `COC(=O)Nc1nc2cc(C3(O)c4ccccc4C(=O)N3CCc3ccccc3)ccc2[nH]1` (stereo not drawn) [Entry 99, methyl {5-[1-hydroxy-3-oxo-2-(2-phenylethyl)-2,3-dihydro-1H-isoindol-1-yl]-1H-benzimidazol-2-yl}carbamate]: the pIC50 at c-Raf and at B-Raf was 5.00 to 6.00 throughout.
For `CC(C)(C)n1c(N)nc2cc(C3(O)c4ccccc4C(=O)N3Cc3ccccc3)ccc21` (stereo not drawn) [Entry 100, 3-[2-amino-1-(1,1-dimethylethyl)-1H-benzimidazol-5-yl]-3-hydroxy-2-(phenylmethyl)-2,3-dihydro-1H-isoindol-1-one], the pIC50 on c-Raf and on B-Raf was not above 5.00 throughout.
For `Nc1nc2cc(C3(O)c4ccccc4C(=O)N3Cc3ccccc3)ccc2[nH]1` (stereo not drawn) [Entry 101, 3-(2-amino-1H-benzimidazol-5-yl)-3-hydroxy-2-(phenylmethyl)-2,3-dihydro-1H-isoindol-1-one], the negative-log IC50 (pIC50) at c-Raf and on B-Raf was 5.00 to 6.00 in each case.
In the case of `COC(=O)Nc1nc2cc(C3(O)NC(=O)c4ccccc43)ccc2[nH]1` (stereo not drawn) [Entry 102, methyl [5-(1-hydroxy-3-oxo-2,3-dihydro-1H-isoindol-1-yl)-1H-benzimidazol-2-yl]carbamate], the pIC50 on c-Raf and at B-Raf was not above 5.00 throughout.
Regarding `COC(C)CCOC(=O)Nc1nc2cc(C3(O)c4ccccc4C(=O)N3Cc3ccccc3)ccc2[nH]1` (stereo not drawn) [Entry 103, 3-(methyloxy)butyl {5-[1-hydroxy-3-oxo-2-(phenylmethyl)-2,3-dihydro-1H-isoindol-1-yl]-1H-benzimidazol-2-yl}carbamate], the pIC50 on c-Raf and on B-Raf was more than 7.00 throughout.
Turning to `COC(=O)Nc1nc2cc(C3(O)c4ccccc4C(=O)N3[C@H](C)c3ccccc3)ccc2[nH]1` (stereo partly drawn) [Entry 104, methyl (5-{1-hydroxy-3-oxo-2-[(1R)-1-phenylethyl]-2,3-dihydro-1H-isoindol-1-yl}-1H-benzimidazol-2-yl)carbamate], the negative-log IC50 (pIC50) at c-Raf and at B-Raf was more than 7.00 in each case.
As for `COC(=O)Nc1nc2cc(C3(O)c4ccccc4C(=O)N3[C@@H](C)c3ccccc3)ccc2[nH]1` (stereo partly drawn) [Entry 105, methyl (5-{1-hydroxy-3-oxo-2-[(1S)-1-phenylethyl]-2,3-dihydro-1H-isoindol-1-yl}-1H-benzimidazol-2-yl)carbamate], the pIC50 on c-Raf and at B-Raf was 5.00 to 6.00 in each case.
On to `COCCOC(=O)Nc1nc2cc(C3(O)c4ccccc4C(=O)N3Cc3ccccc3)ccc2[nH]1` (stereo not drawn) [Entry 106, 2-(methyloxy)ethyl {5-[1-hydroxy-3-oxo-2-(phenylmethyl)-2,3-dihydro-1H-isoindol-1-yl]-1H-benzimidazol-2-yl}carbamate], for which the pIC50 on c-Raf and on B-Raf was more than 7.00 each time.
`COC(=O)Nc1nc2ccc(C3(O)c4ccccc4C(=O)N3Cc3ccccc3)cc2n1C` (stereo not drawn) [Entry 107, methyl {6-[1-hydroxy-3-oxo-2-(phenylmethyl)-2,3-dihydro-1H-isoindol-1-yl]-1-methyl-1H-benzimidazol-2-yl}carbamate]: the pIC50 at c-Raf and at B-Raf was not above 5.00 each time.
Turning to `C#CCOC(=O)Nc1nc2cc(C3(O)c4ccccc4C(=O)N3Cc3ccccc3)ccc2[nH]1` (stereo not drawn) [Entry 108, prop-2-yn-1-yl {5-[1-hydroxy-3-oxo-2-(phenylmethyl)-2,3-dihydro-1H-isoindol-1-yl]-1H-benzimidazol-2-yl}carbamate], the negative logarithm of the IC50 (pIC50) at c-Raf and on B-Raf was more than 7.00 throughout.
